ChEMBL document CHEMBL3352505, “Pentacycloundecylamines and conjugates thereof as chemosensitizers and reversed chloroquine agents” (Bioorg Med Chem Lett, 2014)

Assays:
[1] = tested on: CHO; assay: Cytotoxicity against CHO cells by MTT assay; type: cell-based, Cricetulus griseus; conditions: for IC50: Cricetulus griseus, CHO
[2] = tested on: Plasmodium falciparum; assay: Antimicrobial activity against chloroquine-resistant Plasmodium falciparum Dd2; type: functional
[3] = tested on: Plasmodium falciparum; assay: Antimicrobial activity against chloroquine-sensitive Plasmodium falciparum D10; type: functional
[4] = tested on: Plasmodium falciparum; assay: Resistance index, ratio of IC50 for chloroquine-resistant Plasmodium falciparum Dd2 to IC50 for chloroquine-sensitive Plasmodium falciparum D10; type: functional
[5] = Selectivity index, ratio of IC50 for CHO cells to IC50 for chloroquine-sensitive Plasmodium falciparum D10; type: toxicity, cell-based; conditions: hamster; read-out: Ratio IC50
[6] = tested on: Plasmodium falciparum; assay: Ratio of chloroquine IC50 to compound IC50 for chloroquine-resistant Plasmodium falciparum Dd2; type: functional
[7] = tested on: Plasmodium falciparum; assay: Resistance modification index, ratio of IC50 for chloroquine in presence of 1 uM compound to IC50 for chloroquine alone for chloroquine-resistant Plasmodium falciparum Dd2; type: functional
[8] = tested on: Plasmodium falciparum; assay: Resistance modification index, ratio of IC50 for chloroquine in presence of 10 uM compound to IC50 for chloroquine alone for chloroquine-resistant Plasmodium falciparum Dd2; type: functional

Row | SMILES | IC50 [1] [nM] | IC50 [2] [nM] | IC50 [3] [nM] | Ratio IC50 [4] | selectivity ratio [5] | Ratio IC50 [6] | Ratio IC50 [7] | Ratio IC50 [8] | Activity ([1]; chinese hamster, cho)
1 | CC[C@H]1CN2CCc3cc(OC)c(OC)cc3[C@@H]2C[C@@H]1C[C@H]1NCCc2cc(OC)c(OC)cc21 [EMETINE] | 61 |  |  |  |  |  |  |  | 
2 | OC12C3C4CC5C6C4C1C6C(C53)N2CCCCNc1ccnc2cc(Cl)ccc12 (configuration not stated) | 2390 | 187 | 8.45 | 22 | 283 |  |  |  | 
3 | OC12C3C4CC5C6C4C1C6C(C53)N2CCNc1ccnc2cc(Cl)ccc12 (configuration not stated) | 9540 | 27.6 | 3.74 | 7 | 2550 | 5 |  |  | 
4 | c1ccc(CNC23OC4C5C6CC(C7C6C4C72)C53)cc1 (configuration not stated) |  | > 2000 | > 2000 |  |  |  | 0.6 | 0.48 | Non-toxic
5 | OC12C3C4CC5C6C4C1C6C(C53)N2CCCCCCNc1ccnc2cc(Cl)ccc12 (configuration not stated) | 2630 | 253 | 17.6 | 14 | 149 |  |  |  | 
